Tests used:
[1] = tested on: proteolytic enzymes; settings: prior art; cited from earlier work
[2] = molecular target: T1, Trypsin (Bos taurus, UniProt P00760); experiment: Inhibitory effect on ester-hydrolyzing activity of trypsin (TAMe substrate); format: biochemical; settings: read-out: percent inhibition at 10^-3 M (trypsin)
T1 sequence (P00760 24-246): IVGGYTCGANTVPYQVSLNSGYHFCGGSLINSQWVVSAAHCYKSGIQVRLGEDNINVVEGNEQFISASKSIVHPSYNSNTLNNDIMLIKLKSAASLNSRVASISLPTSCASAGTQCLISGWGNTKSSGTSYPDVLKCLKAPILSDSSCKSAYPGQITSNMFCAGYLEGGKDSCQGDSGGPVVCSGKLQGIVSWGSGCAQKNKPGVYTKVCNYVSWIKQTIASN
Procedure: (A) Determination of Enzyme-inhibitory Activity: The enzyme-inhibitory activities in vitro of the compounds of this invention were measured by the following procedure according to the method of M. Muramatsu et al. [[…]. Makino, Y. Hayashi and S. Fujii: J. […] Then, 10 μmoles of the substrate, TAMe (tosylarginine methyl ester), was added, and incubation was performed at 37° C. for 30 minutes. After the incubation, 1.5 ml of 2 M alkaline hydroxylamine was added and thoroughly mixed, and allowed to stand at room temperature for 15 minutes.

[3] = Acute toxicity by intraperitoneal administration in mice; settings: mouse, in vivo, ip, read-out: DL50 (acute toxicity)
[4] = molecular target: Human Plasma Kallikrein (Homo sapiens, UniProt P03952); experiment: Inhibitory effect on ester-hydrolyzing activity of human plasma kallikrein (TAMe substrate); format: biochemical; settings: read-out: percent inhibition at 10^-3 M (kallikrein)
Procedure: (A) Determination of Enzyme-inhibitory Activity: The enzyme-inhibitory activities in vitro of the compounds of this invention were measured by the following procedure according to the method of M. Muramatsu et al. [[…]. Makino, Y. Hayashi and S. Fujii: J.

[5] = molecular target: T2, Human Cl Esterase (Homo sapiens, UniProt P09871); experiment: Inhibitory effect on ester-hydrolyzing activity of human Cl esterase (ATEe substrate); format: biochemical; settings: in vitro; acetyltyrosine ethyl ester hydrolysis; read-out: ID50 (Cl esterase)
T2 sequence (P09871 438-688 limits assumed): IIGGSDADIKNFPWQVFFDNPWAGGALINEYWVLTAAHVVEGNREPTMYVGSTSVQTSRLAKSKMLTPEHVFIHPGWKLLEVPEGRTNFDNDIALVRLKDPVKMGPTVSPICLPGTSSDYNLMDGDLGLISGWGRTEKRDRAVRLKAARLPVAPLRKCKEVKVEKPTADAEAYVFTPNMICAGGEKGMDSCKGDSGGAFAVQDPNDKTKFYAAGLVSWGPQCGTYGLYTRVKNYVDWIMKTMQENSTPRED
T2 sequence (P09871 16-437 partner limits assumed): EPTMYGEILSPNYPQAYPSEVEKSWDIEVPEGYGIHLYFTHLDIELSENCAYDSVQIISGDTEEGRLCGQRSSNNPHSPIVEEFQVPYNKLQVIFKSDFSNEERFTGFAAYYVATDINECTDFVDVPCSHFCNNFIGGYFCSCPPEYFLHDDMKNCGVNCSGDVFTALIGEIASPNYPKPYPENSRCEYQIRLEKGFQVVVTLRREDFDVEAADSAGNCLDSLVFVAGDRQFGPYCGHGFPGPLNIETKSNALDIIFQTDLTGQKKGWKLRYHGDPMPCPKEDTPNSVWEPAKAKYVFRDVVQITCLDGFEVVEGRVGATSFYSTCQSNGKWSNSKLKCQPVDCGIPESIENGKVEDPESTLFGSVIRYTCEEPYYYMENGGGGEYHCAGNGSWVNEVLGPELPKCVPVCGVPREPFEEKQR
Procedure: It was measured by using 0.1 ml of Cl esterase, 0.1 ml of 0.02 M sodium phosphate buffer solution (pH 7.4) and 10 μmoles of ATEe (acetyltyrosine ethyl ester) as substrate following the method described in (1).

[6] = tested on: complement-dependent hemolysis of sensitized erythrocytes; experiment: Antihemolytic activity (prevention of complement-dependent hemolysis); format: cell-based; settings: Erythrocyte, 10 min; for inhibition at 100 µM: 10^-4 M
Procedure: (C) Determination of Antihemolytic Activity: Preventions of the complement-dependent hemolysis by the compounds of this invention were measured according to the method of B. R. Baker et al. [J. Med. Chem., 12, 408-414 (1969)] by the following procedure: […] The mixture was incubated at 37° C. for 10 minutes. The reaction was stopped by adding 2.7 ml of an ice-cold citrate-saline solution, and the resulting mixture was centrifuged at 3000 rpm for 3 minutes. Absorbance of the supernatant was measured at 541 nm. As the standard, GVB^2+ (gelatin veronal buffer) was substituted for the sample solution and, as the control, GVB^2+ was substituted for the complement.

[7] = molecular target: Bovine Thrombin (Bos taurus, UniProt P00735); experiment: Inhibitory effect on ester-hydrolyzing activity of bovine thrombin (TAMe substrate); format: biochemical; settings: read-out: percent inhibition at 10^-3 M (thrombin)
Procedure: (4) Inhibitory Effect on Ester-Hydrolyzing Activity of Bovine Thrombin
It was measured by using 0.4 ml of bovine thrombin […], 0.02 M sodium phosphate buffer solution (pH 7.4) and TAMe as substrate following the method described in (1).

[8] = molecular target: Human Plasmin (Homo sapiens, UniProt P00747); experiment: Inhibitory effect on ester-hydrolyzing activity of human plasmin (TAMe substrate); format: biochemical; settings: read-out: percent inhibition at 10^-3 M (plasmin)
Procedure: (A) Determination of Enzyme-inhibitory Activity: The enzyme-inhibitory activities in vitro of the compounds of this invention were measured by the following procedure according to the method of M. Muramatsu et al. [[…]. Makino, Y. Hayashi and S. Fujii: J. […] (2) Inhibitory Effect on Ester-hydrolyzing Activity of Human Plasmin It was measured by using 0.1 ml of plasmin (generated by activation of plasminogen with streptokinase) and TAMe as substrate following the method described in (1).

[9] = tested on: Rat Masugi Nephritis; experiment: Effect on rat Masugi nephritis (urinary protein); format: in vivo, Sprague-Dawley rats
Procedure: (D) Effect on Masugi Nephritis: The effect of Compound No. 73 on Masugi nephritis was investigated according to the method of Shibata et al. [S. Shibata: Men-ekigaku, Arerugi-gaku Jikkenho (Immunology, Experimental Methods in Allergology), p. 664, (1971), Bunkodo, Tokyo]. Male sprague-Dawley rats weighing about 200 g were divided into normal group, diseased group and treated group, each consisting of 7 rats. For the purpose of inducing nephritis, 0.5 ml of anti- "rat nephritis" rabbit serum, which had been prepared according to the method of Shibata et al., was administered intravenously to rats of both diseased and treated groups. To the normal group was intravenously administered the same quantity of physiological saline. The test drug was administered intraperitoneally to rats of the treated group three times, namely two days prior to, one day prior to and on the day of administration of the antiserum. From the rats of each group, a 24 hours urine specimen was collected on the day preceding, and the 1st, 2nd, 5th, 8th and 13th days following the administration of the antiserum. Protein contents of the urine specimen were determined by the sulfosalicylic acid method.

Sequence of Human Plasmin (P00747 581-810 limits assumed): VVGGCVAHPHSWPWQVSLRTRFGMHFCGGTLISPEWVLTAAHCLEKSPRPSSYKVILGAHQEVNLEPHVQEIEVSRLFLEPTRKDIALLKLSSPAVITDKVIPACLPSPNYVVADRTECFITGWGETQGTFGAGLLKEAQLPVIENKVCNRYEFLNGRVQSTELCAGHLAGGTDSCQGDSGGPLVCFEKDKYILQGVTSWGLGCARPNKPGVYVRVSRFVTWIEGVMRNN
Sequence of Human Plasmin (P00747 97-580 partner limits assumed): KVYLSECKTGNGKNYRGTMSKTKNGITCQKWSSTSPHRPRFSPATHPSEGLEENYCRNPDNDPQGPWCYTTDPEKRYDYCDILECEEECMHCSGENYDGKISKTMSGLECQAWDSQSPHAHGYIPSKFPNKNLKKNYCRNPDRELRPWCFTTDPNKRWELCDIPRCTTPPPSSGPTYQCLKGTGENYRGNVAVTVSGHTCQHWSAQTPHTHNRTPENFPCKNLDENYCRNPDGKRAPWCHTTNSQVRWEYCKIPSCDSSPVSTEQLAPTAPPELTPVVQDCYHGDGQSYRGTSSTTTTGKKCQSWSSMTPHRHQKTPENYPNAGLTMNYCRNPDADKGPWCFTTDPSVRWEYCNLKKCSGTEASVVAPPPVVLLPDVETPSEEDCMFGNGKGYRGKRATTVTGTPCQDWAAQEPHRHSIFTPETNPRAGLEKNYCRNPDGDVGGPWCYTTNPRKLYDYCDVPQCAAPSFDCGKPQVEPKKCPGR
Sequence of Human Plasma Kallikrein (P03952 391-638 limits assumed): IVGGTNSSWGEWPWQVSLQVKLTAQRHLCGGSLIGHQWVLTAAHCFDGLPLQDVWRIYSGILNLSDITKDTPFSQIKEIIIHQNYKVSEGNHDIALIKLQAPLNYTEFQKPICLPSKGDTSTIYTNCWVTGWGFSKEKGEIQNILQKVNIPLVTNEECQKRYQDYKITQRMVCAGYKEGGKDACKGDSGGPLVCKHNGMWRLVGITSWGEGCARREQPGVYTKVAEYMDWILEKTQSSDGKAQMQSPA
Sequence of Human Plasma Kallikrein (P03952 20-390 partner limits assumed): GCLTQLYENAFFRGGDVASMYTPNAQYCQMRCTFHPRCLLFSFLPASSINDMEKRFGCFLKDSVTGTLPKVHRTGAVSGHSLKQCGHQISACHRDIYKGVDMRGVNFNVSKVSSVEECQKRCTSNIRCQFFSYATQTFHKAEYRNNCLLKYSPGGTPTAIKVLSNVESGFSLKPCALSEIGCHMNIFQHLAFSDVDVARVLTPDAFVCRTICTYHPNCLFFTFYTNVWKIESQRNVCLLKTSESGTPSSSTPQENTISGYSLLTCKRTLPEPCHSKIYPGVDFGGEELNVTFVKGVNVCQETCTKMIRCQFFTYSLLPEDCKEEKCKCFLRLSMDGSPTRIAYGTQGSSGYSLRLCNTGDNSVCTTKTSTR

N=C(N)c1ccc(CC(=O)C(=O)O)cc1 [4-amidinophenylpyruvic acid]
inhibitory activity to proteolytic enzymes [1]: inhibitory activity to proteolytic enzymes
specificity of enzyme inhibition [1]: low in specificity

CCC(Cc1ccc(NC(=N)N)cc1)C(=O)Oc1ccccc1 (stereo not drawn) [Compound No. 73, phenyl α-ethylβ-(p-guanidinophenyl)-propionate]
inhibition at 1000 µM [2]: 43.9%
LD50 [3]: 129 mg/kg
inhibition at 1000 µM [4]: 31.5%
IC50 [5]: 310 µM
inhibition at 1000 µM ([6]; 10^-3 M): 69.1%
inhibition at 100 µM [6]: 30%
inhibition at 1000 µM [7]: < 10%
inhibition at 1000 µM [8]: < 10%
Protein in urine ([9]; 12.5 mg/kg i.p. x3, day 1 after antiserum): 34.0 mg/day
Protein in urine ([9]; 12.5 mg/kg i.p. x3, day 2 after antiserum): 42.5 mg/day
Protein in urine ([9]; 12.5 mg/kg i.p. x3, day 5 after antiserum): 45.6 mg/day
Protein in urine ([9]; 12.5 mg/kg i.p. x3, day 8 after antiserum): 76.3 mg/day
Protein in urine ([9]; 12.5 mg/kg i.p. x3, day 13 after antiserum): 115.5 mg/day
Protein in urine ([9]; 12.5 mg/kg i.p. x3, day -1): 6.0 mg/day
Protein in urine ([9]; 25.0 mg/kg i.p. x3, day 1 after antiserum): 41.1 mg/day
Protein in urine ([9]; 25.0 mg/kg i.p. x3, day 2 after antiserum): 33.9 mg/day
Protein in urine ([9]; 25.0 mg/kg i.p. x3, day 5 after antiserum): 39.4 mg/day
Protein in urine ([9]; 25.0 mg/kg i.p. x3, day 8 after antiserum): 63.3 mg/day
Protein in urine ([9]; 25.0 mg/kg i.p. x3, day 13 after antiserum): 71.5 mg/day
Protein in urine ([9]; 25.0 mg/kg i.p. x3, day -1): 4.2 mg/day

CCOC(=O)c1ccc(OC(=O)CCCCCNC(=N)N)cc1.CS(=O)(=O)O [FOY, ethyl p-(6-guanidinohexanoyloxy)benzoate methanesulfonate]
inhibitory activity to proteolytic enzymes [1]: inhibitory activity to proteolytic enzymes
specificity of enzyme inhibition [1]: low in specificity

CC(Cc1ccc(NC(=N)N)cc1)C(=O)Oc1cccc2ccccc12 (stereo not drawn) [compound 54, 1-naphthyl α-methyl-β-(p-guanidinophenyl)-propionate]
inhibition at 100 µM [6]: 49.3%

CCCC(Cc1cccc(NC(=N)N)c1)C(=O)Oc1ccccc1 (stereo not drawn) [compound 68, phenyl α-n-propyl-β-(m-guanidinophenyl)-propionate]
inhibition at 1000 µM [2]: < 10%
inhibition at 1000 µM [4]: 17.6%
IC50 [5]: 430 µM
inhibition at 100 µM [6]: 30%
inhibition at 1000 µM [7]: < 10%
inhibition at 1000 µM [8]: 22%

CCOC(=O)c1ccc(OC(=O)C(CC)Cc2ccc(NC(=N)N)cc2)cc1 (stereo not drawn) [compound 76, p-ethoxycarbonylphenylα-ethyl-β-(p-guanidinophenyl)-propionate]
inhibition at 100 µM [6]: 33%

Reference: US4182897A, “Amino- or guanidino-phenylpropionic acid derivatives” (Torii & Co., Ltd., priority 1977, dated 1980)
